Values joined by “and” are separate entries in the source; they are usually repeats but may differ in a detail not shown here. Equal values may be shown once. Blank lines part the entries; values can stand above or below the molecule they belong to.
Columns and labels:
[1] = Partition ratio was calculated from the ratio of kcat/kinact
[2] = biological target: T1, Peroxisomal sarcosine oxidase (Homo sapiens) (UniProt Q9P0Z9); experiment: (§1) Kinetic parameter was evaluated for L-pipecolate oxidase using the peroxidase-coupled assay; conditions: Cercopithecidae
T1 sequence (whole entry): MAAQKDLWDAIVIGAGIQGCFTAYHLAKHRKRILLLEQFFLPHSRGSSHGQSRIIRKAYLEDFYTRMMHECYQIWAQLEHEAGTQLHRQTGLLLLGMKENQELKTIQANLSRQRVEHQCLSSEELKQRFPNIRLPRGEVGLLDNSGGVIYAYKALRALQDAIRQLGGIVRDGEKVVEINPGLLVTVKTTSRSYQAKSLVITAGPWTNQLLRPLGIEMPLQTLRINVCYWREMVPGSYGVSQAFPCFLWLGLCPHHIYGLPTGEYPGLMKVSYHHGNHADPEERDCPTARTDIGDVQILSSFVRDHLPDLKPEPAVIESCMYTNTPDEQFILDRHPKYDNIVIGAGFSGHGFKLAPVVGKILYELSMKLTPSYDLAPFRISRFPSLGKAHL

[3] = biological target: T1, Peroxisomal sarcosine oxidase (Homo sapiens); experiment: Kinetic parameter was evaluated for L-pipecolate oxidase was expressed as K observed; conditions: Cercopithecidae
[4] = biological target: T1, Peroxisomal sarcosine oxidase (Homo sapiens); experiment: Kinetic parameter was evaluated for L-pipecolate oxidase; conditions: Cercopithecidae
[5] = biological target: T1, Peroxisomal sarcosine oxidase (Homo sapiens); experiment: Kinetic parameter was evaluated for L-pipecolate oxidase in Frozen Rhesus monkey liver ith L-PA as substrate; type: tissue-based; conditions: Cercopithecidae, target entry is the homologue from another species
[6] = biological target: T2, Peroxisomal sarcosine oxidase (Homo sapiens, UniProt Q9P0Z9); experiment: Time and concentration dependent inhibition of L-pipecolate oxidase was determined by the compound; parameters: species or system Cercopithecidae
T2 sequence (Q9P0Z9 whole entry): T1 sequence (whole entry)

[7] = substrate: O=C(O)[C@@H]1CCSCN1; experiment: as §1; conditions: Cercopithecidae

Ratio [1]: 85 | k cat [2]: 0.085 s⁻¹ | k obs [3]: 4.01e-05 s⁻¹ and 4.26e-05 s⁻¹ | K inact [4]: 0.06 min⁻¹ | k cat [5]: 0.13 s⁻¹ | Ki [6]: 36 mM
Molecule: O=C(O)[C@@H]1CCSCN1

B1: Peroxisomal sarcosine oxidase (Homo sapiens), Q9P0Z9 (protein)
chain: T1 sequence (whole entry)
Km [7]: 940 µM

From ChEMBL document CHEMBL1129844, “Mechanism-based inactivation of l-pipecolate oxidase by a sulfur-containing substrate analog, 5-thia-l-pipecolic acid” (Bioorg Med Chem Lett, 1997)
